Assay results from publication PMC10743653, “Combined In Silico and In Vitro Analyses to Assess the Anticancer Potential of Thiazolidinedione–Thiosemicarbazone Hybrid Molecules” (International Journal of Molecular Sciences, 2023).

Columns and labels:
[1] = system: HT29 cells; assay: Nitric oxide measurement (Griess), HT29; assay type: cell-based, human; conditions: HT29, 200 μg/mL
Procedure: (§1) Nitrate, i.e., a stable end product of NO, was measured in culture supernatants with a spectrophotometric method based on the Griess reaction. Culture supernatants were collected from the cell cultures treated with specific concentrations of the tested compounds (25, 75, 150, and 200 μg/mL, respectively). Briefly, 100 μL of the culture supernatant was placed in 96-well flat-bottomed plates in triplicate and incubated with 100 μL of Griess reagent (1% sulfanilamide/0.1% N-(1-naphthyl)ethylenediamine dihydrochloride) in 3% H3PO4 at room temperature for 10 min. The optical density was measured at 550 nm using a microplate reader. A standard curve was prepared using 0.5–25 μM sodium nitrite (NaNO2) for calibration.

[2] = DPPH free radical scavenging test
Text: Antioxidant activity is a complex procedure, usually happening through several multiple or predominant chemical mechanisms (i.e., hydrogen atom transfer (HAT), single electron transfer (SET), and the ability to chelate transition metals), and it is influenced by many factors, which cannot be fully described with one single method. Therefore, it is important to perform more than one type of measurement to take into account the various mechanisms of antioxidant action. In this study, to assess the antioxidant activity of TZD–TSCs 2–5, two complementary tests were used: a DPPH (2,2-diphenyl-1-picrylhydrazyl) free radical-scavenging ability assay, that detects the HAT and SET mechanisms, and a FRAP (ferric reducing antioxidant power) assay, that prefers the […] mechanism. The antioxidant powers of 2–5 were compared to standard antioxidants, such as the water-soluble synthetic analogue of vitamin E (Trolox) and ascorbic acid (vitamin C).
The free radical scavenging activity of […] was measured by the DPPH assay. Briefly, 100 μl of DPPH solution (0.2 mg/mL in ethanol) was added to 100 μL of the tested compound concentrations (25, 75, 150, and 200 μg/mL, respectively). Trolox, at increasing concentrations (1–50 μg/mL), was used as a standard. After 20 min of incubation at room temperature, the absorbances of the solutions were measured at 515 nm. The lower the absorbance, the higher the free radical scavenging activity of the compound. The activity of each compound was determined by comparing its absorbance with that of the standard.
The ability of the compounds to scavenge the DPPH radical was calculated by the following formula:DPPH scavenging effect (%) = [(Xcontrol − Xcompound/Xcontrol) × 100], where Xcontrol is the absorbance of the control and Xcompound is the absorbance in the presence of TZD-TSCs preparations.

[3] = system: CCD 841 CoTr cells; assay: MTT assay, normal colon epithelial cells; assay type: cell-based; conditions: Homo sapiens, CCD 841 CoTr (noncancerous), 24 h treatment, mean ± SD
Procedure: (§2) The effects of TZD–TSCs 2–5 on the cellular viability of a panel of cell lines were investigated through an 3-(4,5-dimethylthiazol-2-yl)-2,5-diphenyl-2H-tetrazolium bromide (MTT) assay, following a 24 h treatment with the compounds. The panel consisted of three solid tumor cells: T98G (glioblastoma multiforme), HepG2 (hepatocellular carcinoma, epithelial), and HT29 (colon adenocarcinoma, epithelial), as well as noncancerous cells CCD 841 CoTr (normal colon, epithelial).
(§3) Primary single dose screenings of TZD–TSCs 2–5 were performed at a concentration of 200 μg/mL, and those that elicited a greater than 80% inhibition of cell proliferation were analyzed at several concentrations, to find their half-maximal inhibitory concentration (IC50). The IC50 values, reported as the mean ± SD in Table 2, indicate the concentration of the tested compound that inhibits the growth/viability of the cancer cell population by 50%. In this specific case of an MTT assay, which measures the activity of mitochondrial dehydrogenases (as an indicator of cell viability), the IC50 values stand for the concentration that inhibits the metabolic activity of cells by 50%.
(§4) Human colon adenocarcinoma cells, HT29 (ATCC no. HTB-38), derived from a grade I tumor, were cultured in roswell park memorial institute Medium (RPMI) 1640 medium, supplemented with 10% fetal calf serum (FCS) (GibcoTM, Paisley, UK) and antibiotics (100 U/mL penicillin and 100 μg/mL streptomycin) (Sigma, St. Louis, MO), at 37 °C in a humidified atmosphere with 5% CO2. Human normal colon epithelial cells, CCD 841 CoTr (ATCC no. CRL-1807), were cultured in RPMI 1640 + dulbecco’s modified eagle medium (DMEM) (1:1) medium (Sigma, St. Louis, MO), supplemented with 10% FCS and antibiotics, at 34 °C in a 5% CO2/95% air atmosphere. Human glioblastoma T98G cells were cultured in Dulbecco’s Modified Eagle’s Medium (DMEM) (Sigma Aldrich, St. Louis, MO, USA), supplemented with 10% fetal bovine serum (FBS), penicillin (100 U/mL), and streptomycin (100 μg/mL). Human hepatocellular carcinoma cells, HepG2, were maintained in Eagle’s Minimum Essential Medium, supplemented with 10% FBS, penicillin (100 U/mL), and streptomycin (100 μg/mL).
(§5) After 24 h of incubation of the cells with the tested compounds in 100 μL of culture medium, MTT solution (5 mg/mL, 25 μL/well) was added and incubated for an additional 3 h. The purple crystals of formazan which formed in the medium were solubilized overnight in 10% sodium dodecyl sulphate (SDS) in a 0.01 M HCl mixture. The product was quantified spectrophotometrically by measuring its absorbance at 570 nm using an Emax Microplate Reader (Molecular Devices Corporation, Menlo Park, CA, USA).

[4] = system: bacteria; parameters: method as in PMID 29701728; conditions: in vitro antibacterial potency; cited from earlier work
[5] = system: CCD 841 CoTr cells; assay: Nitric oxide measurement (Griess), CCD 841 CoTr; assay type: cell-based, human; conditions: 200 μg/mL
Procedure: as §1

[6] = system: T98G cells; assay: MTT assay, T98G; assay type: cell-based, human; conditions: for IC50: Homo sapiens, T98G, MTT, 24 h treatment, mean ± SD; for SI (selectivity index): IC50 CCD 841 CoTr divided by IC50 T98G
Procedure: as §2, §3, §4, §5

In the case of `O=C(C=C1SC(=O)NC1=O)Oc1ccccc1C=NNC(=S)Nc1ccccc1Cl` [TZD–TSC 2], the “NO production, [NO2^−]” value [1] is reported as 0.272 µM, the “DPPH reduction value corresponding to concentration of Trolox” value (“DPPH reduction value corresponding” for short) ([2]; compound at 25 μg/mL) is reported as 2.942 µg/mL and the “DPPH reduction value corresponding” value ([2]; compound at 75 μg/mL) is reported as 6.670 µg/mL. The “DPPH reduction value corresponding” value ([2]; compound at 150 μg/mL) was 11.412 µg/mL, the “DPPH reduction value corresponding” value ([2]; compound at 200 μg/mL) was 15.068 µg/mL and the IC50 [3] was 44.6 ± 2.91 µM. For the same compound, the “Minimal inhibitory concentrations (MICs)” value [4] was 8.48 to 16.94 µM, the “NO production, [NO2^−]” value [5] was 0.566 µM and the IC50 [6] was 26.8 ± 1.54 µM. For the same compound, the “SI (selectivity index)” value [6] was 1.66.

In the case of `O=C(C=C1SC(=O)NC1=O)Oc1ccccc1C=NNC(=S)Nc1cccc(Cl)c1` [TZD–TSC 3], the “NO production, [NO2^−]” value [1] is reported as 0.201 µM, the “DPPH reduction value corresponding” value ([2]; compound at 25 μg/mL) is reported as 2.616 µg/mL and the “DPPH reduction value corresponding” value ([2]; compound at 75 μg/mL) is reported as 9.168 µg/mL. For the same compound, the “DPPH reduction value corresponding” value ([2]; compound at 150 μg/mL) was 17.167 µg/mL, the “DPPH reduction value corresponding” value ([2]; compound at 200 μg/mL) was 21.439 µg/mL and the IC50 [3] was 100 ± 4.82 µM. The “Minimal inhibitory concentrations (MICs)” value [4] was 8.48 to 16.94 µM, the “NO production, [NO2^−]” value [5] was 0.492 µM and the IC50 [6] was 28.3 ± 2.21 µM. The “SI (selectivity index)” value [6] was 3.54.
